Our source for the Ki and EC50 values is ChEMBL document CHEMBL1149368, “1-Aminomethylbenzocycloalkanes: conformationally restricted hallucinogenic phenethylamine analogues as functionally selective 5-HT2A receptor agonists” (J Med Chem, 2006).

Molecules are shown by their SMILES.

The target in one assay is 5-hydroxytryptamine receptor 2A (Homo sapiens, UniProt P28223).
Sequence of 5-hydroxytryptamine receptor 2A (Homo sapiens, UniProt P28223) (P28223 whole entry): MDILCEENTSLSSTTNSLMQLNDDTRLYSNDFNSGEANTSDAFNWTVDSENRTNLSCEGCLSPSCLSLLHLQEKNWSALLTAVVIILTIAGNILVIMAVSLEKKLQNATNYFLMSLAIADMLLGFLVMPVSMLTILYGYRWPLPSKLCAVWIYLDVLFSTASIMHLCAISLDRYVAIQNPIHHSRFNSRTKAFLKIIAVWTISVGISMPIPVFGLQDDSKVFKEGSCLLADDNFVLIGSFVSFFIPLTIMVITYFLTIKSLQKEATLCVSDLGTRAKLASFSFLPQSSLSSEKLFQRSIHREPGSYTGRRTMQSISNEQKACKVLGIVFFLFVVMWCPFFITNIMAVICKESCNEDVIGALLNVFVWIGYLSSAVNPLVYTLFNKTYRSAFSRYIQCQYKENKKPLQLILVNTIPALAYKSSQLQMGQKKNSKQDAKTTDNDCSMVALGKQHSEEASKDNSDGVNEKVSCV
Description: Displacement of (+/-)-[125I]DOI from human cloned 5HT2A receptor
As for `COc1cc(CCN)c(OC)cc1Br`, affinity was put at a Ki of 0.66 nM. In other words, the sub-nanomolar range.

In the case of `COc1cc(Br)c2c3c1[C@@H](CN)CCC[C@@H]3CO2` (racemic), the inhibitory constant (Ki) was 170 nM.

Compound `COc1cc(Br)c2c3c1[C@H](CN)CCC[C@@H]3CO2` (racemic) showed an inhibition constant (Ki) of 200 nM.

`COc1cc(Br)c(OC)c2c1C(CN)CC2` (racemic): affinity was put at a Ki of 53 nM.

The target of the next assay is T1, 5-hydroxytryptamine receptor 2A (Rattus norvegicus, UniProt P14842). Put plainly: Activity at rat 5HT2A receptor expressed in NIH3T3 cells assessed as stimulation of phospholipase C-mediated IP production. Format: functional, cell-based.
T1 sequence (P14842 whole entry): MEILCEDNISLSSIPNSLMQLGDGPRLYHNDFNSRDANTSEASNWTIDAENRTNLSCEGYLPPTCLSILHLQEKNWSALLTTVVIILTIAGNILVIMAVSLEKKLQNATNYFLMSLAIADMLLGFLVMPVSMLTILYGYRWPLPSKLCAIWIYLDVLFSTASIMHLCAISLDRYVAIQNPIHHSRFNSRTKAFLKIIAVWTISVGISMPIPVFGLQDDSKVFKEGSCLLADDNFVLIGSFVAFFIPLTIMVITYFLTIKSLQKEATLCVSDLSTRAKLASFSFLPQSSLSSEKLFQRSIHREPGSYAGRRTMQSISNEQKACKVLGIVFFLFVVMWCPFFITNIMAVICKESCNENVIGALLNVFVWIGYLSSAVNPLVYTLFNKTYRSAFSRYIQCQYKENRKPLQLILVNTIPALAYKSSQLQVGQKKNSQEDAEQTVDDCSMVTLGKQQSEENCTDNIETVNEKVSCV
For `COc1cc(CCN)c(OC)cc1Br`, the EC50 was determined as 27 nM.

The target in a further assay is T1, 5-hydroxytryptamine receptor 2A.
Description: Displacement of (+/-)-[125I]DOI from rat cloned 5HT2A receptor
Take `COc1cc(CCN)c(OC)cc1Br`: the inhibitory constant (Ki) is 0.88 nM.

Consider `COc1cc(Br)c2c3c1[C@@H](CN)CCC[C@@H]3CO2` (racemic), for which the affinity, expressed as Ki, was 74 nM.

The compound `COc1cc(Br)c2c3c1[C@H](CN)CCC[C@@H]3CO2` (racemic) returned an inhibition constant (Ki) of 170 nM.

`COc1cc(Br)c(OC)c2c1C(CN)CC2` (racemic) came in with a Ki of 47 nM.
